Data from EP4790046A1, “NOVEL COMPOUND DERIVED FROM MYRISTICA FRAGRANS, AND ANTICANCER COMPOSITION COMPRISING SAME” (Korea Institute of Science and Technology, priority 2023, dated 2025).
Read-outs that look alike come from different tables or passages of the source.

How the values were obtained:
SNU201 = test: alamarBlue cell viability (survival rate), SNU201; format: cell-based; details: SNU201 (glioblastoma), compound 10 µM, 48 hours; for viability at 10 µM: read-out: Cancer cell line survival rate (%)
Excerpt: (§1) A p-value < 0.05 was considered statistically significant.

23132/87 = test: alamarBlue cell viability (survival rate, IC50), 23132/87; format: cell-based; details: 23132/87 (gastric cancer); for IC50: 2.5-40 µM, positive control = doxorubicin; for viability at 10 µM / Cancer cell line survival rate (%): compound 10 µM, 48 hours; for viability at 10 µM: read-out: Cancer cell line survival rate (%)
Excerpt: as §1

SNU-719 = test: alamarBlue cell viability (survival rate, IC50), SNU-719; format: cell-based; details: for IC50: SNU719 (gastric cancer), 2.5-40 µM, positive control = doxorubicin; for viability at 10 µM / Cancer cell line survival rate (%): SNU-719 (gastric cancer), compound 10 µM, 48 hours; for viability at 10 µM: read-out: Cancer cell line survival rate (%)
Excerpt: as §1

AGS = test: alamarBlue cell viability (survival rate, IC50), AGS; format: cell-based; details: AGS (gastric cancer); for IC50 / viability at 10 µM: Homo sapiens; for IC50: 2.5-40 µM, positive control = doxorubicin; for viability at 10 µM / Cancer cell line survival rate (%): compound 10 µM, 48 hours; for viability at 10 µM: read-out: Cancer cell line survival rate (%)
Excerpt: as §1

SW48 = test: alamarBlue cell viability (survival rate, IC50), SW48; format: cell-based; details: SW48 (colorectal cancer); for IC50 / viability at 10 µM: Homo sapiens; for IC50: 2.5-40 µM, positive control = oxaliplatin; for viability at 10 µM / Cancer cell line survival rate (%): compound 10 µM, 48 hours; for viability at 10 µM: read-out: Cancer cell line survival rate (%)
Excerpt: as §1

SNU-C5 = test: alamarBlue cell viability (survival rate, IC50), SNU-C5; format: cell-based; details: for viability at 10 µM / Cancer cell line survival rate (%): SNU-C5 (colorectal cancer), compound 10 µM, 48 hours; for viability at 10 µM: read-out: Cancer cell line survival rate (%)
Excerpt: as §1

SNU466 = test: alamarBlue cell viability (survival rate), SNU466; format: cell-based; details: SNU466 (glioblastoma), compound 10 µM, 48 hours; for viability at 10 µM: read-out: Cancer cell line survival rate (%)
Excerpt: as §1

SNU-81 = test: alamarBlue cell viability (survival rate, IC50), SNU-81; format: cell-based; details: for viability at 10 µM / Cancer cell line survival rate (%): SNU-81 (colorectal cancer), compound 10 µM, 48 hours; for viability at 10 µM: read-out: Cancer cell line survival rate (%)
Excerpt: as §1

HepG2 = test: alamarBlue cell viability (survival rate), HepG2; format: cell-based; details: HepG2 (liver cancer), compound 10 µM, 48 hours; for viability at 10 µM: Homo sapiens, read-out: Cancer cell line survival rate (%)
Excerpt: as §1

MiaPaCa-2 = test: alamarBlue cell viability (survival rate), MiaPaCa-2; format: cell-based; details: MiaPaCa-2 (pancreatic cancer), compound 10 µM, 48 hours; for viability at 10 µM: Homo sapiens, MIA PaCa-2, read-out: Cancer cell line survival rate (%)
Excerpt: as §1

[1] = test system: various cancer cell lines; test: alamarBlue cell viability, statements across the cell line panel; details: for anticancer activity: various cancer cell lines
Method: AGS, SW48, HepG2, and MiaPaCa-2 was purchased from ATCC (American Type Culture Collection, USA), SNU cell lines from the Korean Cell Line Bank (KCLB, Korea), and 23132/87 from the Leibniz Institute DSMZ - German Collection of Microorganisms and Cell Cultures GmbH (DSMZ, Germany). All cell lines were cultured in RPMI-1640 medium (HyClone, USA) supplemented with 10% FBS (Gibco, USA) and 1% penicillin-streptomycin (HyClone, USA) under conditions of 5% CO2, 37°C.
Cells were seeded at a density of 5 × 10^3cells/well in a 96-well plate for 24 hours, then treated with the compound at an appropriate concentration (10 µM) for 48 hours. After treatment, alamarBlue reagent was added at a volume ratio of 1/10 of the treatment volume and incubated for 4 hours in a 37°C cell incubator (protected from direct light). Cell viability was then determined by measuring absorbance values at 570 nm and 600 nm using a microplate reader. The anticancer effects of candidate compounds were evaluated by assessing the cell viability (%) of cells treated at specific concentrations and the half-maximal inhibitory concentration (IC50) of each natural product. Doxorubicin and oxaliplatin were used as positive controls for gastric and colorectal cancer, respectively.
Statistical analysis was performed using R software (version 4.2.2) (R Core Team). Differences between groups were assessed using student's t-test or 1-way ANOVA followed by post-hoc Tukey HSD test. A p-value < 0.05 was considered statistically significant.
Further, to measure the IC50 values against six cancer cell lines.

[2] = SNUC5 (colorectal cancer), 2.5-40 µM, positive control = oxaliplatin, read-out: IC50
[3] = SNU81 (colorectal cancer), 2.5-40 µM, positive control = oxaliplatin, read-out: IC50

Compound	viability at 10 µM (SNU201) [%]	viability at 10 µM (23132/87) [%]	viability at 10 µM (SNU-719) [%]	viability at 10 µM (AGS) [%]	viability at 10 µM (SW48) [%]	viability at 10 µM (SNU-C5) [%]	viability at 10 µM (SNU466) [%]	viability at 10 µM (SNU-81) [%]	viability at 10 µM (HepG2) [%]	viability at 10 µM (MiaPaCa-2) [%]	anticancer activity [1]	also measured
C=CCc1cc(OC)c(O[C@H](C)[C@@H](c2ccc(O)c(OC)c2)c2ccc(O)c(C(=O)CCCCCCCCc3ccc(O)c(O)c3)c2O)c(OC)c1 [Compound 2, Myricone B]	1.43	7.44	4.55	2.45	7.98	22.1	2.29	103	1.47	3.67	–	IC50 (23132/87): 4.25 µM; IC50 (SNU-719): 4.7 µM; IC50 (AGS): 4.59 µM; IC50 (SW48): 6.18 µM; IC50 (SNU-C5; [2]): 6.85 µM; IC50 (SNU-81; [3]): 16.6 µM
C=CCc1cc(OC)c(O[C@H](C)[C@H](c2ccc(O)c(OC)c2)c2cc(O)c(O)cc2CCCCCCCCC(=O)c2c(O)cccc2O)c(OC)c1 [Compound 6, Myricone F]	1.4	1.46	1.36	0.51	0.82	3.53	1.96	55.8	1.32	2.16	high anticancer activity	IC50 (23132/87): 2.39 µM; IC50 (SNU-719): 2.58 µM; IC50 (AGS): 3.35 µM; IC50 (SW48): 3.09 µM; IC50 (SNU-C5; [2]): 4.04 µM; IC50 (SNU-81; [3]): 10.3 µM; cytotoxic effects ([1]; gastric cancer cell lines and colorectal cancer cell lines, 10 µM, 48 hours): excellent cytotoxic effects
COc1cc([C@H]2Oc3c(OC)cc(/C=C/Cc4ccc(O)c(C(=O)CCCCCCCCc5ccc(O)c(O)c5)c4O)cc3[C@@H]2C)ccc1O [Compound 19, Myricone X]	107	89.3	108	84.5	69.7	69.6	80.9	102	52.4	56.9	–	–
C/C=C/c1ccc(O[C@H](C)[C@H](c2ccc(O)c(OC)c2)c2ccc(O)c(C(=O)CCCCCCCCc3ccc(O)c(O)c3)c2O)c(OC)c1 (relative stereo) [Compound 8, Myrifragranone A]	–	–	–	–	–	–	–	–	–	–	–	Cancer cell line survival rate (%) (SNU201): 108.12%; Cancer cell line survival rate (%) (23132/87): 3.92%; Cancer cell line survival rate (%) (SNU-719): 2.27%; Cancer cell line survival rate (%) (AGS): 2.19%; Cancer cell line survival rate (%) (SW48): 2.04%; Cancer cell line survival rate (%) (SNU-C5): 4.41%; Cancer cell line survival rate (%) (SNU466): 93.39%; Cancer cell line survival rate (%) (SNU-81): 10.02%; Cancer cell line survival rate (%) (HepG2): 95.41%; Cancer cell line survival rate (%) (MiaPaCa-2): 74.57%
COc1cc([C@H]2Oc3c(OC)cc(/C=C/Cc4c(CCCCCCCCC(=O)c5c(O)cccc5O)ccc(O)c4O)cc3[C@@H]2C)ccc1O [Compound 18, Myricone T]	104	87.1	104	91.9	83.5	78	86.2	102	89	74.8	–	–
COc1ccc(/C=C/Cc2ccc(O)c(C(=O)CCCCCCCCc3ccc(O)c(O)c3)c2O)cc1OC [Compound 21, Myricone Z]	67.8	2.4	4.6	6.86	3.51	6.53	0.95	33.6	6.05	7.58	high anticancer activity	–
COc1cc(CC(C)C(C)C(c2ccc(O)c(OC)c2)c2ccc(O)c(C(=O)CCCCCCCCc3ccc(O)c(O)c3)c2O)ccc1O (stereo not shown) [Compound 15, Myricone P]	31.4	1.45	2.14	8.49	3.93	2.62	0.99	6.63	3.18	4.32	high anticancer activity	–
C=CCc1cc(OC)c(OC(C)C(Oc2cccc(O)c2C(=O)CCCCCCCCc2ccc(O)cc2)c2ccc(O)c(OC)c2)c(OC)c1 (stereo not shown) [Compound 12, Myricone M]	0.75	0.67	0.53	7.89	2.52	1.98	0.64	2.27	1.23	3.46	high anticancer activity	–
O=C(CCCCCCCCc1cc(O)c(O)cc1-c1ccc(O)c(C(=O)CCCCCCCCc2ccc(O)c(O)c2)c1O)c1c(O)cccc1O [Compound 26, Giganteones A, reference compound]	–	–	–	–	–	–	–	–	–	–	–	IC50 (23132/87): 4.08 µM; IC50 (SNU-719): 4.6 µM; IC50 (AGS): 1.71 µM; IC50 (SW48): 2.77 µM; IC50 (SNU-C5; [2]): 3.72 µM; IC50 (SNU-81; [3]): 8.94 µM; anticancer activity (comparison of IC50 values among compounds) ([1]; six cancer cell lines, 2.5-40 µM): overall superior activity to Myrifragranone B and Malabaricone C
COc1cc([C@H]2Oc3c(OC)cc(/C=C/Cc4cc(O)c(O)cc4CCCCCCCCC(=O)c4c(O)cccc4O)cc3[C@@H]2C)ccc1O [Compound 17, Myricone Q]	105	85	54.9	80.5	60.2	58.5	45.6	113	108	59.9	high anticancer activity	–
C=CCc1cc(OC)c(O[C@H](C)[C@H](c2ccc(O)c(OC)c2)c2ccc(O)c(C(=O)CCCCCCCCc3ccc(O)c(O)c3)c2O)c(OC)c1 [Compound 1, Myricone A or Myrifragranone B, reference compound]	–	–	–	–	–	–	–	–	–	–	–	Cancer cell line survival rate (%) (SNU201): 2.07%; IC50 (23132/87): 4.09 µM; Cancer cell line survival rate (%) (23132/87): 4.71%; IC50 (SNU-719): 3.99 µM; Cancer cell line survival rate (%) (SNU-719): 3.95%; Cancer cell line survival rate (%) (AGS): 1.13%; IC50 (AGS): 4.07 µM; IC50 (SW48): 4.3 µM; Cancer cell line survival rate (%) (SW48): 1.75%; Cancer cell line survival rate (%) (SNU-C5): 8.73%; IC50 (SNU-C5; [2]): 6.32 µM; Cancer cell line survival rate (%) (SNU466): 1.7%; IC50 (SNU-81; [3]): 14.6 µM; Cancer cell line survival rate (%) (SNU-81): 94.79%; Cancer cell line survival rate (%) (HepG2): 2.07%; Cancer cell line survival rate (%) (MiaPaCa-2): 3.15%
C=CCc1ccc(O[C@H](C)[C@H](c2ccc(O)c(OC)c2)c2ccc(O)c(C(=O)CCCCCCCCc3ccc(O)c(O)c3)c2O)c(OC)c1 [Compound 5, Myricone E]	0.61	52.1	45	42.1	10.2	37.6	0.58	126	2.34	1.64	–	–
O=C1[O][Pt]2([NH][C@@H]3CCCC[C@H]3[NH]2)[O]C1=O [oxaliplatin, reference compound]	–	–	–	–	–	–	–	–	–	–	–	IC50 (SNU-C5; SNUC5 cells, compound 2.5-40 µM, read-out: IC50 values): 12.6 µM; IC50 (SNU-81; SNU81 cells, compound 2.5-40 µM, read-out: IC50 values): 41.5 µM
COc1cc(C(c2ccc(O)c(C(=O)CCCCCCCCc3ccc(O)c(O)c3)c2O)C(C)C(C)Cc2ccc3c(c2)OCO3)ccc1O (stereo not shown) [Compound 14, Myricone O]	101	78.2	71.6	81.4	31.1	18.8	56.1	104	67	87.8	high anticancer activity	–
